Key:
Format in all cases: cell-based
Ba/F3-Parental = experiment: MTS viability assay, Ba/F3 parental cells; settings: Mus musculus, BaF3, 72 h incubation, top concentration 10 uM
Method: (§1) Exponentially grown Ba/F3 cells (1.5×10^6 cells in 2 ml medium) were infected with 2 ml of viral suspension in a 6-well plate in the presence of mIL-3 (10 ng/ml) and polybrene (4 μg/ml) (Sigma Aldrich, St. Louis, Mo.) and incubated for 24 h. After 24 h, the cells were centrifuged and the viral supernatant was discarded. The cells were then re-suspended in fresh medium and allowed to recover for another day. The following day, the cells were seeded in complete medium without murine IL-3. After a week or two, when cells started proliferating, a selection was carried out by gradually increasing the puromycin concentration to 0.5 ug/ml. Once the cells were growing exponentially in puromycin, batches of cells were frozen down for banking.
(§2) The impact of KIT inhibitors on the viability of Ba/F3 expressing KIT mutations was determined using an MTS assay, which is a colorimetric sensitive quantification of viable cells in proliferation and cytotoxicity assay. In the MTS assay […] in the presence of phenazine methosulfate (PMS) was used. The mitochondrial reductase forms a formazan which absorbs at 490 nm. Cells in exponential growth phase were added to 384-well plates containing pre-dispensed compounds (top concentration 10 uM, 10-point curve). The cells were incubated for 72 h at 37° C. and 5% CO2. After 72 h, MTS reagent was added to the plates and incubated an additional 2 h at 37° C. before measuring the absorbance at 490 nm on a Tecan microplate reader using Magellan Software (Tecan Trading AG, Switzerland).
(§3) The absorbances were normalized as follows: (Read-Day0 control)/(Day3 control−Day0 control)*100. The GI50 values were generated using Genedata Screener software (Genedata Lexington, Mass.). A non-linear regression with constraints for top and bottom between 100 and −100 and no constraint on the Hill coefficient was used to generate GI50 values. The GI50 values reported below are the calculated mean result of at least 3 biological replicates across all the cell lines tested.

[1] = target: T1, Ba/F3-V654A (KIT exon11 deletion (557-558) and secondary mutation V654A) (Homo sapiens, UniProt P10721, DEL557-558/V654A); experiment: MTS viability assay, Ba/F3 expressing KIT exon11 deletion (557-558) and V654A; settings: 72 h incubation, top concentration 10 uM
T1 construct: expressed in transfected cells; host or cells: Ba/F3 cells, lentiviral transduction (pLVX-IRES Puro)
Method: as §1, §2, §3

[2] = target: T2, Ba/F3-T670I (KIT exon11 deletion (557-558) and secondary mutation T670I) (Homo sapiens, UniProt P10721, DEL557-558/T670I); experiment: MTS viability assay, Ba/F3 expressing KIT exon11 deletion (557-558) and T670I; settings: 72 h incubation, top concentration 10 uM
T2 construct: expressed in transfected cells; host or cells: Ba/F3 cells, lentiviral transduction (pLVX-IRES Puro)
Method: as §1, §2, §3

[3] = target: T3, Ba/F3-D816H (KIT exon11 deletion (557-558) and secondary mutation D816H) (Homo sapiens, UniProt P10721, D816H/DEL557-558); experiment: MTS viability assay, Ba/F3 expressing KIT exon11 deletion (557-558) and D816H; settings: 72 h incubation, top concentration 10 uM
T3 construct: expressed in transfected cells; host or cells: Ba/F3 cells, lentiviral transduction (pLVX-IRES Puro)
Method: as §1, §2, §3

[4] = system: TEL-KDR (KDR (K790-V1356) fused to the C-terminus of Tel); experiment: MTS viability assay, Ba/F3 expressing Tel-KDR; settings: 72 h incubation, top concentration 10 uM
Method: Tel-KDR myc was cloned into pBCS2004, a retroviral vector, wherein KDR (K790-V1356) is fused to the C-terminus of Tel. Retroviral particles were generated in HEK293T cells. The Tel-KDR plasmid was co-transfected with helper viruses (gag-Pol and VSV-G) into HEK293T cells using calcium phosphate and the virus was harvested 72 h after transfection.
as §1, §2, §3

T1 sequence (P10721 with tags, fused parts or gaps DEL557-558/V654A): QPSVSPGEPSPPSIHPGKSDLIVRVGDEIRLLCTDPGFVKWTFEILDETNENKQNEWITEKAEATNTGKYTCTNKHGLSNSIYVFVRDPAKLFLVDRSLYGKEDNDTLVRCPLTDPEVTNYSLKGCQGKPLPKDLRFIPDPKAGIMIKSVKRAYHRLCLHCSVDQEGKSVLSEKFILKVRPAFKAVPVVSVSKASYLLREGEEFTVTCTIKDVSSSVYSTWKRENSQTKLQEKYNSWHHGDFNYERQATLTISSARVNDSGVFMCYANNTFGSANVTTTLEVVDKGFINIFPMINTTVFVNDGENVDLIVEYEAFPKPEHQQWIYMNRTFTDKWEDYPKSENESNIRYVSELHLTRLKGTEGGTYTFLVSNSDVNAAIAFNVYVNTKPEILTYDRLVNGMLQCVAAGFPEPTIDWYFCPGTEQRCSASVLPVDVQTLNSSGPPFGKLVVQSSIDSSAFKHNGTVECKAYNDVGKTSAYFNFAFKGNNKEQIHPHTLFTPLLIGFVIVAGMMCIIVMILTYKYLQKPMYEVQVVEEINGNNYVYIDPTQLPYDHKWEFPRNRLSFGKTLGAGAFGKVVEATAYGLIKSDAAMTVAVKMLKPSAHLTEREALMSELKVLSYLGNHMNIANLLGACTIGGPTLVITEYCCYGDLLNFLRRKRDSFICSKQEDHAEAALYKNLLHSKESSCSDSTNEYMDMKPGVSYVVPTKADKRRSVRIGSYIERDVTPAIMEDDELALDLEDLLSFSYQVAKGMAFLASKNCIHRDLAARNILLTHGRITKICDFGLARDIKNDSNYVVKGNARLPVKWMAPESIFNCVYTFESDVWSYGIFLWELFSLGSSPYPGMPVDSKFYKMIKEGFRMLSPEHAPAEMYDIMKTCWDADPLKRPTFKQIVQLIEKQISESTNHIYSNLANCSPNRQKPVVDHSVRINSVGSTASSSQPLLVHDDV
T2 sequence (P10721 with tags, fused parts or gaps DEL557-558/T670I): as the sequence (P10721 with tags, fused parts or gaps DEL557-558/V654A) above, with A627V, T643I counted along it
T3 sequence (P10721 with tags, fused parts or gaps DEL557-558/D816H): as the sequence (P10721 with tags, fused parts or gaps DEL557-558/V654A) above, with A627V, D789H counted along it

## CCOc1cc(OC2COC2)cc2ncnc(Nc3ccc(NC(=O)Cn4cc(C(C)C)nn4)cc3)c12 [Example 9, N-(4-((5-Ethoxy-7-(oxetan-3-yloxy)quinazolin-4-yl)amino)phenyl)-2-(4-isopropyl-1H-1,2,3-triazol-1-yl)acetamide]
Ba/F3-Parental
  GI50: 1710 nM
[1]
  Ba/F3-V654A GI50: 12 nM
[2]
  Ba/F3-T670I GI50: 127 nM
[3]
  Ba/F3-D816H GI50: 105 nM
[4]
  GI50: 2330 nM

## COc1cc(OC)c2c(Nc3ccc(NC(=O)Cn4cc(C(C)C)nn4)cc3)ncnc2c1 [Example 22, N-{4-[(5,7-Dimethoxyquinazolin-4-yl)amino]phenyl}-2-[4-(propan-2-yl)-1H-1,2,3-triazol-1-yl]acetamide]
Ba/F3-Parental
  GI50: ≥ 10000 nM
[1]
  Ba/F3-V654A GI50: 3 nM
[2]
  Ba/F3-T670I GI50: 106 nM
[3]
  Ba/F3-D816H GI50: 48 nM
[4]
  GI50: 5350 nM

## COc1cc(OC2CCOCC2)cc2ncnc(Nc3ccc(NC(=O)Cn4cc(C(C)C)nn4)cc3)c12 [Example 10, N-(4-{[5-Methoxy-7-(tetrahydro-2H-pyran-4-yloxy)quinazolin-4-yl]amino}phenyl)-2-[4-(propan-2-yl)-1H-1,2,3-triazol-1-yl]acetamide]
Ba/F3-Parental
  GI50: ≥ 10000 nM
[1]
  Ba/F3-V654A GI50: 7 nM
[2]
  Ba/F3-T670I GI50: 640 nM
[3]
  Ba/F3-D816H GI50: 65 nM
[4]
  GI50: 9480 nM

## COc1cc(F)c2c(Nc3ccc(NC(=O)Cn4cc(C(C)C)nn4)cc3)ncnc2c1 [Example 21, N-{4-[(5-Fluoro-7-methoxyquinazolin-4-yl)amino]phenyl}-2-[4-(propan-2-yl)-1H-1,2,3-triazol-1-yl]acetamide]
Ba/F3-Parental
  GI50: ≥ 10000 nM
[1]
  Ba/F3-V654A GI50: 2 nM
[2]
  Ba/F3-T670I GI50: 68 nM
[3]
  Ba/F3-D816H GI50: 25 nM
[4]
  GI50: ≥ 10000 nM

## CCOc1cc(OCCN(C)C)cc2ncnc(Nc3ccc(NC(=O)Cn4cc(C(C)C)nn4)cc3)c12 [Example 6, N-(4-((7-(2-(Dimethylamino)ethoxy)-5-ethoxyquinazolin-4-yl)amino)phenyl)-2-(4-isopropyl-1H-1,2,3-triazol-1-yl)acetamide]
Ba/F3-Parental
  GI50: 2050 nM
[1]
  Ba/F3-V654A GI50: 13 nM
[2]
  Ba/F3-T670I GI50: 91 nM
[3]
  Ba/F3-D816H GI50: 63 nM
[4]
  GI50: 2660 nM

## COc1cc2ncnc(Nc3ccc(NC(=O)Cn4cc(C(C)C)nn4)cc3)c2c(F)c1OC [Example 2, N-{4-[(5-fluoro-6,7-dimethoxyquinazolin-4-yl)amino]phenyl}-2-[4-(propan-2-yl)-1H-1,2,3-triazol-1-yl]acetamide]
Ba/F3-Parental
  GI50: ≥ 10000 nM
[1]
  Ba/F3-V654A GI50: 4 nM
[2]
  Ba/F3-T670I GI50: 49 nM
[3]
  Ba/F3-D816H GI50: 22 nM
[4]
  GI50: 2500 nM

## COc1cc(OC)c2c(Nc3ccc(NC(=O)Cn4cc(C(C)C)nn4)cc3F)ncnc2c1 [Example 1, N-(4-[(5,7-dimethoxyquinazolin-4-yl)amino]-3-fluorophenyl)-2-[4-(propan-2-yl)-1H-1,2,3-triazol-1-yl]acetamide]
Ba/F3-Parental
  GI50: ≥ 10000 nM
[1]
  Ba/F3-V654A GI50: 7 nM
[2]
  Ba/F3-T670I GI50: 162 nM
[3]
  Ba/F3-D816H GI50: 141 nM
[4]
  GI50: ≥ 10000 nM

## CCOc1cc(OC2CCOCC2)cc2ncnc(Nc3ccc(NC(=O)Cn4cc(C(C)C)nn4)cc3)c12 [Example 5, N-(4-((5-Ethoxy-7-((tetrahydro-2H-pyran-4-yl)oxy)quinazolin-4-yl)amino)phenyl)-2-(4-isopropyl-1H-1,2,3-triazol-1-yl)acetamide]
Ba/F3-Parental
  GI50: 1870 nM
[1]
  Ba/F3-V654A GI50: 41 nM
[2]
  Ba/F3-T670I GI50: 591 nM
[3]
  Ba/F3-D816H GI50: 138 nM
[4]
  GI50: 6180 nM

## COc1cc(OC(C)C)cc2ncnc(Nc3ccc(NC(=O)Cn4cc(C(C)C)nn4)cc3)c12 [Example 15, N-(4-{[5-Methoxy-7-(propan-2-yloxy)quinazolin-4-yl]amino}phenyl)-2-[4-(propan-2-yl)-1H-1,2,3-triazol-1-yl]acetamide]
Ba/F3-Parental
  GI50: ≥ 10000 nM
[1]
  Ba/F3-V654A GI50: 11 nM
[2]
  Ba/F3-T670I GI50: 254 nM
[3]
  Ba/F3-D816H GI50: 35 nM
[4]
  GI50: 4180 nM

## CCOc1cc(OC)c2c(Nc3ccc(NC(=O)Cn4cc(C(C)C)nn4)cc3)ncnc2c1 [Example 18, N-{4-[(7-Ethoxy-5-methoxyquinazolin-4-yl)amino]phenyl}-2-[4-(propan-2-yl)-1H-1,2,3-triazol-1-yl]acetamide]
Ba/F3-Parental
  GI50: ≥ 10000 nM
[1]
  Ba/F3-V654A GI50: 3 nM
[2]
  Ba/F3-T670I GI50: 66 nM
[3]
  Ba/F3-D816H GI50: 21 nM
[4]
  GI50: 6010 nM

## COc1cc(OCCN(C)C)cc2ncnc(Nc3ccc(NC(=O)Cn4cc(C(C)C)nn4)cc3)c12 [Example 17, N-[4-({7-[2-(Dimethylamino)ethoxy]-5-methoxyquinazolin-4-yl}amino)phenyl]-2-[4-(propan-2-yl)-1H-1,2,3-triazol-1-yl]acetamide]
Ba/F3-Parental
  GI50: ≥ 10000 nM
[1]
  Ba/F3-V654A GI50: 20 nM
[2]
  Ba/F3-T670I GI50: 627 nM
[3]
  Ba/F3-D816H GI50: 88 nM
[4]
  GI50: ≥ 10000 nM

## COCCOc1cc(F)c2c(Nc3ccc(NC(=O)Cn4cc(C(C)C)nn4)cc3)ncnc2c1 [Example 12, N-(4-{[5-Fluoro-7-(2-methoxyethoxy)quinazolin-4-yl]amino}phenyl)-2-[4-(propan-2-yl)-1H-1,2,3-triazol-1-yl]acetamide]
Ba/F3-Parental
  GI50: ≥ 10000 nM
[1]
  Ba/F3-V654A GI50: 2 nM
[2]
  Ba/F3-T670I GI50: 15 nM
[3]
  Ba/F3-D816H GI50: 7 nM
[4]
  GI50: 1300 nM

## CCOc1cc(OC)cc2ncnc(Nc3ccc(NC(=O)Cn4cc(C(C)C)nn4)cc3)c12 [Example 7, N-(4-((5-Ethoxy-7-methoxyquinazolin-4-yl)amino)phenyl)-2-(4-isopropyl-1H-1,2,3-triazol-1-yl)acetamide]
Ba/F3-Parental
  GI50: ≥ 10000 nM
[1]
  Ba/F3-V654A GI50: 7 nM
[2]
  Ba/F3-T670I GI50: 73 nM
[3]
  Ba/F3-D816H GI50: 79 nM
[4]
  GI50: 3190 nM

## CCOc1cc(OCC)c2c(Nc3ccc(NC(=O)Cn4cc(C(C)C)nn4)cc3)ncnc2c1 [Example 19, N-{4-[(5,7-Diethoxyquinazolin-4-yl)amino]phenyl}-2-[4-(propan-2-yl)-1H-1,2,3-triazol-1-yl]acetamide]
Ba/F3-Parental
  GI50: ≥ 10000 nM
[1]
  Ba/F3-V654A GI50: 7 nM
[2]
  Ba/F3-T670I GI50: 34 nM
[3]
  Ba/F3-D816H GI50: 56 nM
[4]
  GI50: ≥ 10000 nM

## COCCOc1cc(OC)c2c(Nc3ccc(NC(=O)Cn4cc(C(C)C)nn4)cc3)ncnc2c1 [Example 20, N-(4-{[5-Methoxy-7-(2-methoxyethoxy)quinazolin-4-yl]amino}phenyl)-2-[4-(propan-2-yl)-1H-1,2,3-triazol-1-yl]acetamide]
Ba/F3-Parental
  GI50: 9960 nM
[1]
  Ba/F3-V654A GI50: 8 nM
[2]
  Ba/F3-T670I GI50: 53 nM
[3]
  Ba/F3-D816H GI50: 30 nM
[4]
  GI50: 3390 nM

## COc1cc(OC2COC2)cc2ncnc(Nc3ccc(NC(=O)Cn4cc(C(C)C)nn4)cc3)c12 [Example 16, N-(4-{[5-Methoxy-7-(oxetan-3-yloxy)quinazolin-4-yl]amino}phenyl)-2-[4-(propan-2-yl)-1H-1,2,3-triazol-1-yl]acetamide]
Ba/F3-Parental
  GI50: ≥ 10000 nM
[1]
  Ba/F3-V654A GI50: 12 nM
[2]
  Ba/F3-T670I GI50: 502 nM
[3]
  Ba/F3-D816H GI50: 90 nM
[4]
  GI50: 9360 nM

## COc1cc2ncnc(Nc3ccc(NC(=O)Cn4cc(C(C)C)nn4)cc3)c2c(OC)c1OC [Example 11, 2-[4-(Propan-2-yl)-1H-1,2,3-triazol-1-yl]-N-{4-[(5,6,7-trimethoxyquinazolin-4-yl)amino]phenyl}acetamide]
Ba/F3-Parental
  GI50: ≥ 10000 nM
[1]
  Ba/F3-V654A GI50: 4 nM
[2]
  Ba/F3-T670I GI50: 36 nM
[3]
  Ba/F3-D816H GI50: 27 nM
[4]
  GI50: 2480 nM

## CCOc1cc(OCCOC)cc2ncnc(Nc3ccc(NC(=O)Cn4cc(C(C)C)nn4)cc3)c12 [Example 8, N-(4-((5-Ethoxy-7-(2-methoxyethoxy)quinazolin-4-yl)amino)phenyl)-2-(4-isopropyl-1H-1,2,3-triazol-1-yl)acetamide]
Ba/F3-Parental
  GI50: 2550 nM
[1]
  Ba/F3-V654A GI50: 15 nM
[2]
  Ba/F3-T670I GI50: 32 nM
[3]
  Ba/F3-D816H GI50: 44 nM
[4]
  GI50: 2150 nM
